Tested on: Genes belonging to other category
Assay: DNA chip mRNA expression in yeast, genes belonging to other category (Table 9)
Assay type: cell-based, Saccharomyces cerevisiae S288C
In short: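 Cells were grown at 25° C. in YPD, treated at logarithmic phase for 2 h with a chemical at a concentration inhibiting growth but not causing death, and compared with untreated cultures. Labeled cDNA was hybridized to a DNA chip carrying all yeast genes, and the expression ratio was taken from scanner fluorescence.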

CCCCC[C@H](O)CC(=O)CCc1ccc(O)c(OC)c1 [(13), gingerol]
The level of expressed mRNA in the presence of chemical substance/The level of expressed mRNA in the absence of chemical substance (yeast gene YAL007C): 2.0
The level of expressed mRNA in the presence of chemical substance/The level of expressed mRNA in the absence of chemical substance (yeast gene YBL005W-A): 2.9
The level of expressed mRNA in the presence of chemical substance/The level of expressed mRNA in the absence of chemical substance (yeast gene YBL041W): 2.6
The level of expressed mRNA in the presence of chemical substance/The level of expressed mRNA in the absence of chemical substance (yeast gene YBL043W): 1.8
The level of expressed mRNA in the presence of chemical substance/The level of expressed mRNA in the absence of chemical substance (yeast gene YBR109C): 2.0
The level of expressed mRNA in the presence of chemical substance/The level of expressed mRNA in the absence of chemical substance (yeast gene YBR201W): 1.9
The level of expressed mRNA in the presence of chemical substance/The level of expressed mRNA in the absence of chemical substance (yeast gene YCL020W): 3.0
The level of expressed mRNA in the presence of chemical substance/The level of expressed mRNA in the absence of chemical substance (yeast gene YCL027W): 1.1
The level of expressed mRNA in the presence of chemical substance/The level of expressed mRNA in the absence of chemical substance (yeast gene YCR004C): 1.3
The level of expressed mRNA in the presence of chemical substance/The level of expressed mRNA in the absence of chemical substance (yeast gene YCR071C): 1.3
The level of expressed mRNA in the presence of chemical substance/The level of expressed mRNA in the absence of chemical substance (yeast gene YCR088W): 1.9
The level of expressed mRNA in the presence of chemical substance/The level of expressed mRNA in the absence of chemical substance (yeast gene YDL008W): 2.0
The level of expressed mRNA in the presence of chemical substance/The level of expressed mRNA in the absence of chemical substance (yeast gene YDL097C): 4.0
The level of expressed mRNA in the presence of chemical substance/The level of expressed mRNA in the absence of chemical substance (yeast gene YDL126C): 4.3
The level of expressed mRNA in the presence of chemical substance/The level of expressed mRNA in the absence of chemical substance (yeast gene YDL212W): 0.5
The level of expressed mRNA in the presence of chemical substance/The level of expressed mRNA in the absence of chemical substance (yeast gene YDL238C): 2.0
The level of expressed mRNA in the presence of chemical substance/The level of expressed mRNA in the absence of chemical substance (yeast gene YDR055W): 3.1
The level of expressed mRNA in the presence of chemical substance/The level of expressed mRNA in the absence of chemical substance (yeast gene YDR084C): 1.0
The level of expressed mRNA in the presence of chemical substance/The level of expressed mRNA in the absence of chemical substance (yeast gene YDR085C): 1.1
The level of expressed mRNA in the presence of chemical substance/The level of expressed mRNA in the absence of chemical substance (yeast gene YDR104C): 1.6
The level of expressed mRNA in the presence of chemical substance/The level of expressed mRNA in the absence of chemical substance (yeast gene YDR115W): 1.1
The level of expressed mRNA in the presence of chemical substance/The level of expressed mRNA in the absence of chemical substance (yeast gene YDR315C): 1.6
The level of expressed mRNA in the presence of chemical substance/The level of expressed mRNA in the absence of chemical substance (yeast gene YDR358W): 3.2
The level of expressed mRNA in the presence of chemical substance/The level of expressed mRNA in the absence of chemical substance (yeast gene YDR388W): 1.7
The level of expressed mRNA in the presence of chemical substance/The level of expressed mRNA in the absence of chemical substance (yeast gene YDR481C): 1.5
The level of expressed mRNA in the presence of chemical substance/The level of expressed mRNA in the absence of chemical substance (yeast gene YDR518W): 1.8
The level of expressed mRNA in the presence of chemical substance/The level of expressed mRNA in the absence of chemical substance (yeast gene YEL042W): 0.4
The level of expressed mRNA in the presence of chemical substance/The level of expressed mRNA in the absence of chemical substance (yeast gene YEL066W): 1.6
The level of expressed mRNA in the presence of chemical substance/The level of expressed mRNA in the absence of chemical substance (yeast gene YER012W): 2.9
The level of expressed mRNA in the presence of chemical substance/The level of expressed mRNA in the absence of chemical substance (yeast gene YER130C): 1.6
The level of expressed mRNA in the presence of chemical substance/The level of expressed mRNA in the absence of chemical substance (yeast gene YER136W): 1.3
The level of expressed mRNA in the presence of chemical substance/The level of expressed mRNA in the absence of chemical substance (yeast gene YFL022C): 0.6
The level of expressed mRNA in the presence of chemical substance/The level of expressed mRNA in the absence of chemical substance (yeast gene YFL043C): 1.5
The level of expressed mRNA in the presence of chemical substance/The level of expressed mRNA in the absence of chemical substance (yeast gene YGL158W): 1.0
The level of expressed mRNA in the presence of chemical substance/The level of expressed mRNA in the absence of chemical substance (yeast gene YGL229C): 1.7
The level of expressed mRNA in the presence of chemical substance/The level of expressed mRNA in the absence of chemical substance (yeast gene YGR136W): 1.7
The level of expressed mRNA in the presence of chemical substance/The level of expressed mRNA in the absence of chemical substance (yeast gene YGR189C): 1.2
The level of expressed mRNA in the presence of chemical substance/The level of expressed mRNA in the absence of chemical substance (yeast gene YGR257C): 2.0
The level of expressed mRNA in the presence of chemical substance/The level of expressed mRNA in the absence of chemical substance (yeast gene YHR004C): 1.1
The level of expressed mRNA in the presence of chemical substance/The level of expressed mRNA in the absence of chemical substance (yeast gene YHR071W): 2.3
The level of expressed mRNA in the presence of chemical substance/The level of expressed mRNA in the absence of chemical substance (yeast gene YHR142W): 1.2
The level of expressed mRNA in the presence of chemical substance/The level of expressed mRNA in the absence of chemical substance (yeast gene YIL123W): 0.4
The level of expressed mRNA in the presence of chemical substance/The level of expressed mRNA in the absence of chemical substance (yeast gene YJL073W): 1.6
The level of expressed mRNA in the presence of chemical substance/The level of expressed mRNA in the absence of chemical substance (yeast gene YJL089W): 1.8
The level of expressed mRNA in the presence of chemical substance/The level of expressed mRNA in the absence of chemical substance (yeast gene YJR099W): 1.5
The level of expressed mRNA in the presence of chemical substance/The level of expressed mRNA in the absence of chemical substance (yeast gene YJR122W): 1.3
The level of expressed mRNA in the presence of chemical substance/The level of expressed mRNA in the absence of chemical substance (yeast gene YJR125C): 1.5
The level of expressed mRNA in the presence of chemical substance/The level of expressed mRNA in the absence of chemical substance (yeast gene YKL008C): 1.7
The level of expressed mRNA in the presence of chemical substance/The level of expressed mRNA in the absence of chemical substance (yeast gene YKL013C): 1.3
The level of expressed mRNA in the presence of chemical substance/The level of expressed mRNA in the absence of chemical substance (yeast gene YKL039W): 1.9

From patent publication US8192962B2, “Processes for detecting toxic substances” (Daikin Industries, Ltd., priority 2001, dated 2012)
